Literature values in patent US20240408209A1, “Peptide-Protected Gold Nanocluster and Use in Photodynamic Therapy” (Queen's University at Kingston, priority 2023, published 2024).

Settings: positive control

## CN(C)c1ccc2nc3ccc(=[N+](C)C)cc-3sc2c1 [Methylene blue]
  QY of photochemical generation of 1O2: 0.52
